From patent publication US9655902B2, “Guanidine derivatives for the treatment of hepatitis C” (priority 2013, dated 2017)
Where two headings read alike, the source gives them in different places.

System: HCV pseudoparticles (genotype 1a HCV E1 and E2 envelope, H77C isolate)
Experiment: HCV pseudoparticle infection assay (luciferase reporter, Huh7 cells)
Type: cell-based, HCV genotype 1a
Settings: Hepatitis C virus, Huh-7, 48 h, read-out: EC50 (1a, nM), genotype 1a HCV pseudoparticles, Huh7 cells, luciferase 2 days after infection

| Structure (SMILES) | EC50 (class symbol) | EC50 (numeric value) |
| --- | --- | --- |
| N=C(N)N1CCCN(C(=O)c2ccc(Nc3nc(NC4(c5ccc(Cl)cc5)CC4)nc(OCC(F)(F)F)n3)cc2)CC1 [Compound 1001, 4-(4-(4-(1-(4-chlorophenyl)cyclopropylamino)-6-(2,2,2-trifluoroethoxy)-1,3,5-triazin-2-ylamino)benzoyl)-1,4-diazepane-1-carboximidamide] | 0.01 to 10 nM | – |
| N=C(N)NCCC[C@@H](NC(=O)c1ccc(Nc2nc(NC3(c4ccc(Cl)cc4)CC3)nc(OCC(F)(F)F)n2)cc1)C(=O)O [Compound 1002, (R)-2-(4-(4-(1-(4-chlorophenyl)cyclopropylamino)-6-(2,2,2-trifluoroethoxy)-1,3,5-triazin-2-ylamino)benzamido)-5-guanidinopentanoic acid] | 0.01 to 10 nM | – |
| N=C(N)NCCC[C@H](NC(=O)c1ccc(Nc2nc(NC3(c4ccc(Cl)cc4)CC3)nc(OCC(F)(F)F)n2)cc1)C(=O)O [Compound 1003, (S)-2-(4-(4-(1-(4-chlorophenyl)cyclopropylamino)-6-(2,2,2-trifluoroethoxy)-1,3,5-triazin-2-ylamino)benzamido)-5-guanidinopentanoic acid] | 0.01 to 10 nM | 0.711 nM |
| N=C(N)N1CCCN(C(=O)c2ccc(Nc3nc(NCc4ccc(Cl)cc4)nc(OCC(F)(F)F)n3)cc2)CC1 [Compound 1004, 4-(4-(4-(4-chlorobenzylamino)-6-(2,2,2-trifluoroethoxy)-1,3,5-triazin-2-ylamino)benzoyl)-1,4-diazepane-1-carboximidamide] | 10 to 1000 nM | – |
| N=C(N)NCCCCNC(=O)c1ccc(Nc2nc(NCc3ccc(Cl)cc3)nc(OCC(F)(F)F)n2)cc1 [Compound 1005, 4-(4-(4-chlorobenzylamino)-6-(2,2,2-trifluoroethoxy)-1,3,5-triazin-2-ylamino)-N-(4-guanidinobutyl)benzamide] | 10 to 1000 nM | 29.5 nM |
| N=C(N)NCCC[C@@H](NC(=O)c1ccc(Nc2nc(NCc3ccc(Cl)cc3)nc(OCC(F)(F)F)n2)cc1)C(=O)O [Compound 1006, (R)-2-(4-(4-(4-chlorobenzylamino)-6-(2,2,2-trifluoroethoxy)-1,3,5-triazin-2-ylamino)benzamido)-5-guanidinopentanoic acid] | 10 to 1000 nM | – |
| N=C(N)NCCC[C@H](NC(=O)c1ccc(Nc2nc(NCc3ccc(Cl)cc3)nc(OCC(F)(F)F)n2)cc1)C(=O)O [Compound 1007, (S)-2-(4-(4-(4-chlorobenzylamino)-6-(2,2,2-trifluoroethoxy)-1,3,5-triazin-2-ylamino)benzamido)-5-guanidinopentanoic acid] | 10 to 1000 nM | – |
| NC(=O)/N=C(\NC1CCCC1)N1CCN(C(=O)c2ccc(Nc3nc(NC4(c5ccc(Cl)cc5)CC4)nc(OCC(F)(F)F)n3)cc2)CC1 [Compound 1008, N′-carbamoyl-4-(4-(4-(1-(4-chlorophenyl)cyclopropylamino)-6-(2,2,2-trifluoroethoxy)-1,3,5-triazin-2-ylamino)benzoyl)-N-cyclopentylpiperazine-1-carboximidamide] | 0.01 to 10 nM | – |
| N#C/N=C(\NC1CCCC1)N1CCN(C(=O)c2ccc(Nc3nc(NC4(c5ccc(Cl)cc5)CC4)nc(OCC(F)(F)F)n3)cc2)CC1 [Compound 1009, 4-(4-(4-(1-(4-chlorophenyl)cyclopropylamino)-6-(2,2,2-trifluoroethoxy)-1,3,5-triazin-2-ylamino)benzoyl)-N′-cyano-N-cyclopentylpiperazine-1-carboximidamide] | 0.01 to 10 nM | 3.57 nM |
| NC(=O)/N=C(\N1CCC1)N1CCN(C(=O)c2ccc(Nc3nc(NC4(c5ccc(Cl)cc5)CC4)nc(OCC(F)(F)F)n3)cc2)CC1 [Compound 1010, 1-(azetidin-1-yl(4-(4-(4-(1-(4-chlorophenyl)cyclopropylamino)-6-(2,2,2-trifluoroethoxy)-1,3,5-triazin-2-ylamino)benzoyl)piperazin-1-yl)methylene)urea] | 0.01 to 10 nM | – |
| N#C/N=C(\N1CCC1)N1CCN(C(=O)c2ccc(Nc3nc(NC4(c5ccc(Cl)cc5)CC4)nc(OCC(F)(F)F)n3)cc2)CC1 [Compound 1011, N-(azetidin-1-yl(4-(4-(4-(1-(4-chlorophenyl)cyclopropylamino)-6-(2,2,2-trifluoroethoxy)-1,3,5-triazin-2-ylamino)benzoyl)piperazin-1-yl)methylene)cyanamide] | 0.01 to 10 nM | – |
| NC(=O)/N=C(\N1CCCCC1)N1CCN(C(=O)c2ccc(Nc3nc(NC4(c5ccc(Cl)cc5)CC4)nc(OCC(F)(F)F)n3)cc2)CC1 [Compound 1012, 1-((4-(4-(4-(1-(4-chlorophenyl)cyclopropylamino)-6-(2,2,2-trifluoroethoxy)-1,3,5-triazin-2-ylamino)benzoyl)piperazin-1-yl)(piperidin-1-yl)methylene)urea] | 0.01 to 10 nM | – |
| N#C/N=C(\N1CCCCC1)N1CCN(C(=O)c2ccc(Nc3nc(NC4(c5ccc(Cl)cc5)CC4)nc(OCC(F)(F)F)n3)cc2)CC1 [Compound 1013, N-((4-(4-(4-(1-(4-chlorophenyl)cyclopropylamino)-6-(2,2,2-trifluoroethoxy)-1,3,5-triazin-2-ylamino)benzoyl)piperazin-1-yl)(piperidin-1-yl)methylene)cyanamide] | 0.01 to 10 nM | – |
| N=C1NCCN1C(=O)c1ccc(Nc2nc(NC3(c4ccc(Cl)cc4)CC3)nc(OCC(F)(F)F)n2)cc1 [Compound 1014, (4-(4-(1-(4-chlorophenyl)cyclopropylamino)-6-(2,2,2-trifluoroethoxy)-1,3,5-triazin-2-ylamino)phenyl)(2-iminoimidazolidin-1-yl)methanone] | 0.01 to 10 nM | 3.01 nM |
| N=C(N)NC[C@H](NC(=O)c1ccc(Nc2nc(NC3(c4ccc(Cl)cc4)CC3)nc(OCC(F)(F)F)n2)cc1)C(=O)O [Compound 1015, (S)-2-(4-(4-(1-(4-chlorophenyl)cyclopropylamino)-6-(2,2,2-trifluoroethoxy)-1,3,5-triazin-2-ylamino)benzamido)-3-guanidinopropanoic acid] | 0.01 to 10 nM | – |
| N=C(N)NCCC[C@H](NC(=O)c1ccc(Nc2nc(NC3(c4ccc(Cl)cc4)CC3)nc(OCC(F)(F)F)n2)cc1)C(N)=O [Compound 1016, (S)—N-(1-amino-5-guanidino-1-oxopentan-2-yl)-4-(4-(1-(4-chlorophenyl)cyclopropylamino)-6-(2,2,2-trifluoroethoxy)-1,3,5-triazin-2-ylamino)benzamide] | 0.01 to 10 nM | 0.352 nM |

| Structure (SMILES) | EC50 (class symbol) | EC50 (numeric value) |
| --- | --- | --- |
| N=C(N)N1CCCN(C(=O)c2ccc(Nc3nc(NCc4ccc(Cl)cc4)nc(OCc4ccccc4)n3)cc2)CC1 [Compound 1017] | 10 to 1000 nM | – |
| N=C(N)N1CCCN(C(=O)c2cccc(Nc3nc(NCc4ccc(Cl)cc4)nc(OCc4ccccc4)n3)c2)CC1 [Compound 1018] | 10 to 1000 nM | – |
| N=C(N)NCCC[C@H](NC(=O)c1ccc(Nc2nc(NCc3ccc(Cl)cc3)nc(OCc3ccccc3)n2)cc1)C(=O)N[C@@H](CCC(N)=O)C(=O)O [Compound 1019] | 10 to 1000 nM | – |
| N=C(N)NNC(=O)c1ccc(Nc2nc(NCc3ccc(Cl)cc3)nc(OCc3ccccc3)n2)cc1 [Compound 1020] | 10 to 1000 nM | 175 nM |
| N=C(N)NNC(=O)c1cccc(Nc2nc(NCc3ccc(Cl)cc3)nc(OCc3ccccc3)n2)c1 [Compound 1021] | > 1000 nM | – |
| N=C(N)NS(=O)(=O)c1ccc(NC(=O)c2ccc(Nc3nc(NCc4ccc(Cl)cc4)nc(OCc4ccccc4)n3)cc2)cc1 [Compound 1022] | 10 to 1000 nM | 62.5 nM |
| N=C(N)NS(=O)(=O)c1ccc(NC(=O)c2cccc(Nc3nc(NCc4ccc(Cl)cc4)nc(OCc4ccccc4)n3)c2)cc1 [Compound 1023] | 10 to 1000 nM | – |
| N=C(N)NCCCCNC(=O)c1ccc(Nc2nc(NCc3ccc(Cl)cc3)nc(OCc3ccccc3)n2)cc1 [Compound 1024] | 10 to 1000 nM | – |
| N=C(N)NCCCCNC(=O)c1cccc(Nc2nc(NCc3ccc(Cl)cc3)nc(OCc3ccccc3)n2)c1 [Compound 1025] | > 1000 nM | 4480 nM |
| N=C(N)N1CCN(C(=O)c2ccc(Nc3nc(NCc4ccc(Cl)cc4)nc(OCc4ccccc4)n3)cc2)CC1 [Compound 1026] | 10 to 1000 nM | – |
| N=C(N)N1CCN(C(=O)c2cccc(Nc3nc(NCc4ccc(Cl)cc4)nc(OCc4ccccc4)n3)c2)CC1 [Compound 1027] | 10 to 1000 nM | – |
| [2H]C([2H])(Oc1nc(Nc2ccc(C(=O)N[C@@H](CCCNC(=N)N)C(N)=O)cc2)nc(NC2(c3ccc(Cl)cc3)CC2)n1)C(F)(F)F [Compound 1028] | 0.01 to 10 nM | – |
| [2H]C([2H])(Oc1nc(Nc2ccc(C(=O)N[C@H](CCCNC(=N)N)C(=O)N[C@@H](Cc3ccccc3)C(=O)O)cc2)nc(NC2(c3ccc(Cl)cc3)CC2)n1)C(F)(F)F [Compound 1029] | 0.01 to 10 nM | – |
| [2H]C([2H])(Oc1nc(Nc2ccc(C(=O)N[C@@H](CCCNC(=N)N)C(=O)NCC(N)=O)cc2)nc(NC2(c3ccc(Cl)cc3)CC2)n1)C(F)(F)F [Compound 1030] | 0.01 to 10 nM | – |
| [2H]C([2H])(Oc1nc(Nc2ccc(C(=O)N[C@@H](CCCNC(=N)N)C(=O)N[C@@H](CC(N)=O)C(N)=O)cc2)nc(NC2(c3ccc(Cl)cc3)CC2)n1)C(F)(F)F [Compound 1031] | 0.01 to 10 nM | – |
